{"source": "patent US6706663B2", "about": "“Herbicidal 3-heterocyclic substituted benzisothiazole and benzisoxazole compounds” (Wyeth, priority 2000, dated 2004)", "key": {"[1]": {"system": "ABUTH (Abutilon theophrasti)", "assay": "Postemergence herbicidal evaluation", "assay_type": "in vivo, Medic.", "settings": "postemergence", "how_it_was_run": "(§1)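 Seedlings grown for about two weeks were sprayed postemergence and then kept under standard greenhouse care. Injury was rated visually 4–5 weeks after treatment on a 0–9 scale against untreated controls, and ratings from repeat tests were averaged.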"}, "ZEAMX (Corn, Field) [2]": {"system": "ZEAMX (Corn, Field)", "assay": "Postemergence herbicidal evaluation", "assay_type": "in vivo, Zea mays, L.", "settings": "postemergence", "how_it_was_run": "as §1"}, "[3]": {"system": "ECHORC (Echinochloa oryzoides)", "assay": "Flooded paddy, preemergence weed control", "assay_type": "in vivo, Echinochloa oryzoides (Ard.) Fritsch.", "settings": "rated 3-4 weeks after treatment, 0-9 rating scale", "how_it_was_run": "(§2)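 Plants were established from seed or propagating organs in flooded silt loam, with the water surface held 1.5 to 3 cm above the soil for the entire experiment. Injury was assessed visually against a control and given a 0-9 score.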"}, "[4]": {"system": "CASOB (Cassia obtusifolia)", "assay": "Preemergence herbicidal evaluation", "assay_type": "in vivo, L.", "settings": "rated 4-5 weeks after treatment", "how_it_was_run": "(§3)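 Seeds mixed with potting soil were planted atop about one inch of soil, then sprayed with test compound in aqueous acetone. Cups were kept in the greenhouse and rated visually 4–5 weeks after treatment on a 0–9 scale against untreated control.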"}, "[5]": {"system": "CHEAL (Chenopodium album)", "assay": "Preemergence herbicidal evaluation", "assay_type": "in vivo, L.", "settings": "rated 4-5 weeks after treatment", "how_it_was_run": "as §3"}, "[6]": {"system": "AMBEL (Ambrosia artemisifolia)", "assay": "Preemergence herbicidal evaluation", "assay_type": "in vivo, L.", "settings": "rated 4-5 weeks after treatment", "how_it_was_run": "as §3"}, "[7]": {"system": "ECHCG (Echinochloa crus-galli)", "assay": "Postemergence herbicidal evaluation", "assay_type": "in vivo, (L.) Beau", "settings": "postemergence", "how_it_was_run": "as §1"}, "[8]": {"system": "SAGPY (Sagittaria pygmaea)", "assay": "Flooded paddy, preemergence weed control", "assay_type": "in vivo, L.", "settings": "rated 3-4 weeks after treatment, 0-9 rating scale", "how_it_was_run": "as §2"}, "[9]": {"system": "TRZAWR (Wheat, Winter, cv Riband)", "assay": "Preemergence herbicidal evaluation", "assay_type": "in vivo, Triticum aestivum", "settings": "rated 4-5 weeks after treatment", "how_it_was_run": "as §3"}, "CYPIR (Cyperus iria)": {"system": "CYPIR (Cyperus iria)", "assay": "Flooded paddy, preemergence weed control", "assay_type": "in vivo", "settings": "rated 3-4 weeks after treatment, 0-9 rating scale", "how_it_was_run": "as §2"}, "[10]": {"system": "GLXMAW (Soybean, Williams)", "assay": "Preemergence herbicidal evaluation", "assay_type": "in vivo, Glycine max, (L.) Merr. cv Williams", "settings": "rated 4-5 weeks after treatment"}, "ZEAMX (Corn, Field) [11]": {"system": "ZEAMX (Corn, Field)", "assay": "Preemergence herbicidal evaluation", "assay_type": "in vivo, Zea mays, L.", "settings": "rated 4-5 weeks after treatment"}, "[12]": {"system": "CASOB (Cassia obtusifolia)", "assay": "Postemergence herbicidal evaluation", "assay_type": "in vivo, L.", "settings": "postemergence", "how_it_was_run": "as §1"}, "[13]": {"system": "CHEAL (Chenopodium album)", "assay": "Postemergence herbicidal evaluation", "assay_type": "in vivo, L.", "settings": "postemergence", "how_it_was_run": "as §1"}, "[14]": {"system": "AMBEL (Ambrosia artemisifolia)", "assay": "Postemergence herbicidal evaluation", "assay_type": "in vivo, L.", "settings": "postemergence", "how_it_was_run": "as §1"}, "GALAP (Galium aparine) [15]": {"system": "GALAP (Galium aparine)", "assay": "Preemergence herbicidal evaluation", "assay_type": "in vivo", "settings": "rated 4-5 weeks after treatment", "how_it_was_run": "as §3"}, "GALAP (Galium aparine) [16]": {"system": "GALAP (Galium aparine)", "assay": "Postemergence herbicidal evaluation", "assay_type": "in vivo", "settings": "postemergence", "how_it_was_run": "as §1"}, "[17]": {"system": "IPOHE (Ipomoea hederacea)", "assay": "Postemergence herbicidal evaluation", "assay_type": "in vivo, (L.) Jacq.", "settings": "postemergence", "how_it_was_run": "as §1"}, "[18]": {"system": "IPOHE (Ipomoea hederacea)", "assay": "Preemergence herbicidal evaluation", "assay_type": "in vivo, (L.) Jacq.", "settings": "rated 4-5 weeks after treatment"}, "[19]": {"system": "GLXMAW (Soybean, Williams)", "assay": "Postemergence herbicidal evaluation", "assay_type": "in vivo, Glycine max, (L.) Merr. cv Williams", "settings": "postemergence", "how_it_was_run": "as §1"}, "ORYSAT (Rice, Tebonnet)": {"system": "ORYSAT (Rice, Tebonnet)", "assay": "Preemergence herbicidal evaluation", "assay_type": "in vivo, Oryza sativa, (L.) Tebonnet", "settings": "rated 4-5 weeks after treatment"}}}
{"molecule": "CCCC1COC(c2nsc3ccc(-n4c(=O)cc(C(F)(F)F)n(C)c4=O)cc23)O1", "note": "(centres unmarked) [Compound 77, 1-methyl-3-[3-(4-propyl-1,3-dioxolan-2-yl)-1,2-benzisothiazol-5-yl]-6-(trifluoromethyl)uracil]", "values": [{"measurement": "ABUTH herbicidal rating", "setting": "[1]; rate 0.0320 kg/ha", "result": 9.0}, {"measurement": "ABUTH herbicidal rating", "setting": "[1]; rate 0.0620 kg/ha", "result": 9.0}, {"measurement": "ZEAMX herbicidal rating", "setting": "ZEAMX (Corn, Field) [2]; rate 0.0320 kg/ha", "result": 3.0}, {"measurement": "ZEAMX herbicidal rating", "setting": "ZEAMX (Corn, Field) [2]; rate 0.0620 kg/ha", "result": 3.5}, {"measurement": "herbicidal rating, ECHORC", "setting": "[3]; rate 0.0080 kg/ha", "result": 0.0}, {"measurement": "herbicidal rating, ECHORC", "setting": "[3]; rate 0.0320 kg/ha", "result": 5.0}, {"measurement": "herbicidal rating, ECHORC", "setting": "[3]; rate 0.1250 kg/ha", "result": 9.0}, {"measurement": "Preemergence herbicidal rating CASOB", "setting": "[4]; Rate 0.0620 kg/ha", "result": 2.5}, {"measurement": "Preemergence herbicidal rating CASOB", "setting": "[4]; Rate 0.1250 kg/ha", "result": 4.5}, {"measurement": "Preemergence herbicidal rating CASOB", "setting": "[4]; Rate 0.2500 kg/ha", "result": 7.5}, {"measurement": "Preemergence herbicidal rating CHEAL", "setting": "[5]; Rate 0.0620 kg/ha", "result": 9.0}, {"measurement": "Preemergence herbicidal rating CHEAL", "setting": "[5]; Rate 0.1250 kg/ha", "result": 9.0}, {"measurement": "Preemergence herbicidal rating CHEAL", "setting": "[5]; Rate 0.2500 kg/ha", "result": 9.0}, {"measurement": "Preemergence herbicidal rating AMBEL", "setting": "[6]; Rate 0.0620 kg/ha", "result": 8.5}, {"measurement": "Preemergence herbicidal rating AMBEL", "setting": "[6]; Rate 0.1250 kg/ha", "result": 9.0}, {"measurement": "Preemergence herbicidal rating AMBEL", "setting": "[6]; Rate 0.2500 kg/ha", "result": 9.0}, {"measurement": "ECHCG herbicidal rating", "setting": "[7]; rate 0.0320 kg/ha", "result": 4.0}, {"measurement": "ECHCG herbicidal rating", "setting": "[7]; rate 0.0620 kg/ha", "result": 4.0}, {"measurement": "herbicidal rating, SAGPY", "setting": "[8]; rate 0.0080 kg/ha", "result": 0.0}, {"measurement": "herbicidal rating, SAGPY", "setting": "[8]; rate 0.0320 kg/ha", "result": 0.0}, {"measurement": "herbicidal rating, SAGPY", "setting": "[8]; rate 0.1250 kg/ha", "result": 5.0}, {"measurement": "Preemergence herbicidal rating TRZAWR", "setting": "[9]; Rate 0.0620 kg/ha", "result": 6.0}, {"measurement": "Preemergence herbicidal rating TRZAWR", "setting": "[9]; Rate 0.1250 kg/ha", "result": 6.0}, {"measurement": "Preemergence herbicidal rating TRZAWR", "setting": "[9]; Rate 0.2500 kg/ha", "result": 7.0}, {"measurement": "herbicidal rating, CYPIR", "setting": "CYPIR (Cyperus iria); rate 0.0080 kg/ha", "result": 0.0}, {"measurement": "herbicidal rating, CYPIR", "setting": "CYPIR (Cyperus iria); rate 0.0320 kg/ha", "result": 7.0}, {"measurement": "herbicidal rating, CYPIR", "setting": "CYPIR (Cyperus iria); rate 0.1250 kg/ha", "result": 9.0}, {"measurement": "Preemergence herbicidal rating GLXMAW", "setting": "[10]; Rate 0.0620 kg/ha", "result": 4.0}, {"measurement": "Preemergence herbicidal rating GLXMAW", "setting": "[10]; Rate 0.1250 kg/ha", "result": 6.0}, {"measurement": "Preemergence herbicidal rating GLXMAW", "setting": "[10]; Rate 0.2500 kg/ha", "result": 9.0}, {"measurement": "Preemergence herbicidal rating ZEAMX", "setting": "ZEAMX (Corn, Field) [11]; Rate 0.0620 kg/ha", "result": 7.0}, {"measurement": "Preemergence herbicidal rating ZEAMX", "setting": "ZEAMX (Corn, Field) [11]; Rate 0.1250 kg/ha", "result": 7.5}, {"measurement": "Preemergence herbicidal rating ZEAMX", "setting": "ZEAMX (Corn, Field) [11]; Rate 0.2500 kg/ha", "result": 8.5}, {"measurement": "CASOB herbicidal rating", "setting": "[12]; rate 0.0320 kg/ha", "result": 4.0}, {"measurement": "CASOB herbicidal rating", "setting": "[12]; rate 0.0620 kg/ha", "result": 6.0}, {"measurement": "CHEAL herbicidal rating", "setting": "[13]; rate 0.0320 kg/ha", "result": 9.0}, {"measurement": "CHEAL herbicidal rating", "setting": "[13]; rate 0.0620 kg/ha", "result": 9.0}, {"measurement": "AMBEL herbicidal rating", "setting": "[14]; rate 0.0320 kg/ha", "result": 9.0}, {"measurement": "AMBEL herbicidal rating", "setting": "[14]; rate 0.0620 kg/ha", "result": 9.0}, {"measurement": "Preemergence herbicidal rating GALAP", "setting": "GALAP (Galium aparine) [15]; Rate 0.1250 kg/ha", "result": 7.0}, {"measurement": "Preemergence herbicidal rating GALAP", "setting": "GALAP (Galium aparine) [15]; Rate 0.2500 kg/ha", "result": 9.0}, {"measurement": "GALAP herbicidal rating", "setting": "GALAP (Galium aparine) [16]; rate 0.0320 kg/ha", "result": 4.0}, {"measurement": "GALAP herbicidal rating", "setting": "GALAP (Galium aparine) [16]; rate 0.0620 kg/ha", "result": 7.0}, {"measurement": "IPOHE herbicidal rating", "setting": "[17]; rate 0.0320 kg/ha", "result": 9.0}, {"measurement": "IPOHE herbicidal rating", "setting": "[17]; rate 0.0620 kg/ha", "result": 9.0}, {"measurement": "Preemergence herbicidal rating IPOHE", "setting": "[18]; Rate 0.0620 kg/ha", "result": 3.0}, {"measurement": "Preemergence herbicidal rating IPOHE", "setting": "[18]; Rate 0.1250 kg/ha", "result": 4.0}, {"measurement": "Preemergence herbicidal rating IPOHE", "setting": "[18]; Rate 0.2500 kg/ha", "result": 7.5}, {"measurement": "GLXMAW herbicidal rating", "setting": "[19]; rate 0.0320 kg/ha", "result": 7.5}, {"measurement": "GLXMAW herbicidal rating", "setting": "[19]; rate 0.0620 kg/ha", "result": 8.5}, {"measurement": "Preemergence herbicidal rating ORYSAT", "setting": "ORYSAT (Rice, Tebonnet); Rate 0.0620 kg/ha", "result": 5.0}, {"measurement": "Preemergence herbicidal rating ORYSAT", "setting": "ORYSAT (Rice, Tebonnet); Rate 0.1250 kg/ha", "result": 5.0}, {"measurement": "Preemergence herbicidal rating ORYSAT", "setting": "ORYSAT (Rice, Tebonnet); Rate 0.2500 kg/ha", "result": 5.5}]}
